# Values quoted from earlier work, collected in patent US20100256576A1, “Disinfectant Compositions, Methods and Systems” (TYCO HEALTHCARE GROUP LP, priority 2009, published 2010).
# Details: up to 3000 mg infused over 3 hours, daily, humans with hypercalcemia
structure (smiles),measurement,value
"O=C([O-])CN(CCN(CC(=O)[O-])CC(=O)O)CC(=O)O.[Na+].[Na+] [EDTA, Disodium EDTA]",tolerability of infused dose,well tolerated
